Measurements published in PubChem BioAssay AID1259407 (Chemical Carcinogenesis Research Information System (CCRIS), 2018).
Activity calls are given as the source filed them. No rule for the calls is given here.

Tested on: CCRIS mutagenicity, Ames/micronucleus/aberration tests
Test: CCRIS mutagenicity studies
[1] = Test System: AMES SALMONELLA TYPHIMURIUM, Strain/Indicator: TA100, Metabolic Activation: NONE, Method: PREINCUBATION
[2] = Test System: AMES SALMONELLA TYPHIMURIUM, Strain/Indicator: TA98, Metabolic Activation: NONE, Method: STANDARD PLATE
[3] = Test System: AMES SALMONELLA TYPHIMURIUM, Strain/Indicator: TA100, Metabolic Activation: NONE, Method: STANDARD PLATE
[4] = Test System: AMES SALMONELLA TYPHIMURIUM, Strain/Indicator: TA1535, Metabolic Activation: NONE, Method: STANDARD PLATE

In the case of CCCCCCCCc1ccc(Nc2ccc(CCCCCCCC)cc2)cc1, the mutagenic call (End Point: IN VITRO CHROMOSOMAL ABERRATIONS, Test System: CHINESE HAMSTER LUNG CELLS (CHL), Metabolic Activation: NONE) is reported as “inactive; negative”, the mutagenic call (End Point: IN VITRO CHROMOSOMAL ABERRATIONS, Test System: CHINESE HAMSTER LUNG CELLS (CHL), Metabolic Activation: RAT, LIVER, S-9, KC-400) is reported as “inactive; negative” and the mutagenic call (End Point: IN VITRO CHROMOSOMAL ABERRATIONS, Test System: CHINESE HAMSTER OVARY CELLS (CHO), Metabolic Activation: NONE) is reported as “inactive; negative”. For the same compound, the mutagenic call (End Point: IN VITRO CHROMOSOMAL ABERRATIONS, Test System: CHINESE HAMSTER OVARY CELLS (CHO), Metabolic Activation: RAT, LIVER, S-9, AROCLOR 1254) was “inactive; negative”, the mutagenic call (End Point: IN VITRO CHROMOSOMAL ABERRATIONS, Test System: CHO-LB CELLS, Metabolic Activation: NONE) was “inactive; negative” and the mutagenic call (End Point: IN VITRO CHROMOSOMAL ABERRATIONS, Test System: CHO-LB CELLS, Metabolic Activation: RAT, LIVER, S-9, AROCLOR 1254) was “inactive; negative”. For the same compound, the mutagenic call (Test System: AMES SALMONELLA TYPHIMURIUM, Strain/Indicator: TA97, Metabolic Activation: HAMSTER, LIVER, S-9, AROCLOR 1254 (10 OR 30%), Method: PREINCUBATION) was “inactive; negative”, the mutagenic call (Test System: AMES SALMONELLA TYPHIMURIUM, Strain/Indicator: TA97, Metabolic Activation: NONE, Method: PREINCUBATION) was “inactive; negative” and the mutagenic call (Test System: AMES SALMONELLA TYPHIMURIUM, Strain/Indicator: TA97, Metabolic Activation: RAT, LIVER, S-9, AROCLOR 1254 (10 OR 30%), Method: PREINCUBATION) was “inactive; negative”. The mutagenic call (Test System: AMES SALMONELLA TYPHIMURIUM, Strain/Indicator: TA98, Metabolic Activation: HAMSTER, LIVER, S-9, AROCLOR 1254 (10 OR 30%), Method: PREINCUBATION) was “inactive; negative”, the mutagenic call (Test System: AMES SALMONELLA TYPHIMURIUM, Strain/Indicator: TA98, Metabolic Activation: NONE, Method: PREINCUBATION) was “inactive; negative” and the mutagenic call (Test System: AMES SALMONELLA TYPHIMURIUM, Strain/Indicator: TA98, Metabolic Activation: RAT, LIVER, S-9, AROCLOR 1254 (10 OR 30%), Method: PREINCUBATION) was “inactive; negative”. The mutagenic call (Test System: AMES SALMONELLA TYPHIMURIUM, Strain/Indicator: TA100, Metabolic Activation: HAMSTER, LIVER, S-9, AROCLOR 1254 (10 OR 30%), Method: PREINCUBATION) was “inactive; negative”, the mutagenic call [1] was “inactive; negative” and the mutagenic call (Test System: AMES SALMONELLA TYPHIMURIUM, Strain/Indicator: TA100, Metabolic Activation: RAT, LIVER, S-9, AROCLOR 1254 (10 OR 30%), Method: PREINCUBATION) was “inactive; negative”. For the same compound, the mutagenic call (Test System: AMES SALMONELLA TYPHIMURIUM, Strain/Indicator: TA1535, Metabolic Activation: HAMSTER, LIVER, S-9, AROCLOR 1254 (10 OR 30%), Method: PREINCUBATION) was “inactive; negative”, the mutagenic call (Test System: AMES SALMONELLA TYPHIMURIUM, Strain/Indicator: TA1535, Metabolic Activation: NONE, Method: PREINCUBATION) was “inactive; negative” and the mutagenic call (Test System: AMES SALMONELLA TYPHIMURIUM, Strain/Indicator: TA1535, Metabolic Activation: RAT, LIVER, S-9, AROCLOR 1254 (10 OR 30%), Method: PREINCUBATION) was “inactive; negative”. The mutagenic call (Test System: AMES SALMONELLA TYPHIMURIUM, Strain/Indicator: TA1537, Metabolic Activation: HAMSTER, LIVER, S-9, AROCLOR 1254 (30%), Method: PREINCUBATION) was “inactive; negative”, the mutagenic call (Test System: AMES SALMONELLA TYPHIMURIUM, Strain/Indicator: TA1537, Metabolic Activation: NONE, Method: PREINCUBATION) was “inactive; negative” and the mutagenic call (Test System: AMES SALMONELLA TYPHIMURIUM, Strain/Indicator: TA1537, Metabolic Activation: RAT, LIVER, S-9, AROCLOR 1254 (30%), Method: PREINCUBATION) was “inactive; negative”.

In the case of Cn1c([N+](=O)[O-])nc2ccccc21, the mutagenic call [2] is reported as “active; positive”.

CN1CCN(C2=Nc3ccccc3Oc3ccc(Cl)cc32)CC1 was tested, and the mutagenic call [2] was “inactive; negative”, the mutagenic call (Test System: AMES SALMONELLA TYPHIMURIUM, Strain/Indicator: TA98, Metabolic Activation: RAT, LIVER, S-9, AROCLOR 1254, Method: STANDARD PLATE) was “inactive; negative” and the mutagenic call [3] was “inactive; negative”. For the same compound, the mutagenic call (Test System: AMES SALMONELLA TYPHIMURIUM, Strain/Indicator: TA100, Metabolic Activation: RAT, LIVER, S-9, AROCLOR 1254, Method: STANDARD PLATE) was “inactive; negative”, the mutagenic call [4] was “inactive; negative” and the mutagenic call (Test System: AMES SALMONELLA TYPHIMURIUM, Strain/Indicator: TA1535, Metabolic Activation: RAT, LIVER, S-9, AROCLOR 1254, Method: STANDARD PLATE) was “inactive; negative”. The mutagenic call (Test System: AMES SALMONELLA TYPHIMURIUM, Strain/Indicator: TA1537, Metabolic Activation: NONE, Method: STANDARD PLATE) was “inactive; negative” and the mutagenic call (Test System: AMES SALMONELLA TYPHIMURIUM, Strain/Indicator: TA1537, Metabolic Activation: RAT, LIVER, S-9, AROCLOR 1254, Method: STANDARD PLATE) was “inactive; negative”.

For NCCc1c[nH]c2ccccc12, the mutagenic call (Test System: AMES SALMONELLA TYPHIMURIUM, Strain/Indicator: TA97A, Metabolic Activation: NONE, Method: STANDARD PLATE) was “inactive; negative”, the mutagenic call (Test System: AMES SALMONELLA TYPHIMURIUM, Strain/Indicator: TA97A, Metabolic Activation: RAT LIVER S-9, PHENOBARBITOL/BETA-NAPHTHOFLAVONE, Method: STANDARD PLATE) was “inactive; negative” and the mutagenic call [2] was “inactive; negative”. For the same compound, the mutagenic call (Test System: AMES SALMONELLA TYPHIMURIUM, Strain/Indicator: TA98, Metabolic Activation: RAT LIVER S-9, PHENOBARBITOL/BETA-NAPHTHOFLAVONE, Method: STANDARD PLATE) was “inactive; negative”, the mutagenic call [1] was “inactive; negative” and the mutagenic call [3] was “inactive; negative”. The mutagenic call (Test System: AMES SALMONELLA TYPHIMURIUM, Strain/Indicator: TA100, Metabolic Activation: RAT LIVER S-9, PHENOBARBITOL/BETA-NAPHTHOFLAVONE, Method: STANDARD PLATE) was “inactive; negative”, the mutagenic call [4] was “inactive; negative” and the mutagenic call (Test System: AMES SALMONELLA TYPHIMURIUM, Strain/Indicator: TA1535, Metabolic Activation: RAT LIVER S-9, PHENOBARBITOL/BETA-NAPHTHOFLAVONE, Method: STANDARD PLATE) was “inactive; negative”. For the same compound, the mutagenic call (Test System: E.COLI, Strain/Indicator: WP2/UVRA, Metabolic Activation: NONE, Method: STANDARD PLATE) was “inactive; negative” and the mutagenic call (Test System: E.COLI, Strain/Indicator: WP2/UVRA, Metabolic Activation: RAT LIVER S-9, PHENOBARBITOL/BETA-NAPHTHOFLAVONE, Method: STANDARD PLATE) was “inactive; negative”.

For Oc1cccc2c1sc1ccccc12, the mutagenic call (Test System: CHINESE HAMSTER OVARY, Strain/Indicator: CHO-K1-BH4 (HGPRT)/6-THIOGUANINE, Metabolic Activation: RAT, LIVER, S-9, AROCLOR (4%)) was “active; positive”.

In the case of c1cnc2c(c1)ccc1c2ccc2cccnc21, the mutagenic call (Test System: AMES SALMONELLA TYPHIMURIUM, Strain/Indicator: TA100, Metabolic Activation: POOLED HUMAN LIVER MICROSOMES, Method: PREINCUBATION) is reported as “active; positive”, the mutagenic call (Test System: AMES SALMONELLA TYPHIMURIUM, Strain/Indicator: TA100, Metabolic Activation: RAT, LIVER, S-9, PHENOBARBITAL AND 5,6-BENZOFLAVONE, Method: PREINCUBATION) is reported as “active; positive” and the mutagenic call (Test System: Ames Salmonella typhimurium, Strain/Indicator: TA100, Metabolic Activation: Rat, Liver, S-9) is reported as “active; positive”. The mutagenic call (Test System: LACZ TRANSGENIC MOUSE (MUTATM MOUSE), Strain/Indicator: LACZ MUTANT FREQUENCY, Method: LIVER, SPLEEN, LUNG, KIDNEY, BONE MARROW, COLON HARVESTED 7 D AFTER LAST DOSE, DNA ISOLATED) was “active; positive; g:c to t:a transversions in all organs”.

For Nc1ccn([C@@H]2O[C@H](CO)[C@@H](O)C2(F)F)c(=O)n1, the mutagenic call (End Point: CHROMOSOMAL ABERRATIONS, Test System: BONE MARROW, Species: MOUSE, Strain/Sex: SWISS/MALE, FEMALE, Route: INTRAPERITONEAL) was “active; positive (structural changes)”, the mutagenic call (End Point: IN VITRO CHROMOSOMAL ABERRATIONS, Test System: HUMAN PERIPHERAL LYMPHOCYTES, Metabolic Activation: NONE) was “active; positive; (structural changes: breaks, fragments)” and the mutagenic call (End Point: IN VITRO CHROMOSOMAL ABERRATIONS, Test System: HUMAN PERIPHERAL LYMPHOCYTES, Strain/Sex: MALE, FEMALE, Metabolic Activation: NONE) was “active; positive (structural changes)”. The mutagenic call (End Point: MICRONUCLEUS, Test System: BONE MARROW, Species: MOUSE, Strain/Sex: SWISS/MALE, FEMALE, Route: INTRAPERITONEAL) was “active; positive”.
